# Columns and labels:
# [1] = system: DU145 cells; experiment: MTT cytotoxicity assay on DU145 prostate cancer cells; assay type: cell-based; conditions: for primary growth inhibitory screen, cell viability, DU145: 2.5 µM, 72 h, mean±SD, untreated control about 100; for IC50: Homo sapiens, DU-145, 72 h, compounds 1-7 µM, mean ± SD, read-out: IC50 on DU145
# Description: (§1) Cytotoxicity screens were performed to assess the in vitro anticancer activity of the synthesized A-ring-linked 2-pyrazoles of estradiol, the pyrazolocoumarin-estradiol hybrids, and their structurally simplified non-steroidal analogs on various cancerous cell lines such as MCF-7, PC-3, DU145, and HeLa and on non-cancerous MRC-5 fibroblasts. The 2-acetyl-phenol starting materials (4, 5, and 15) were also included for comparison. All compounds were applied in 2.5 µM concentration for 72 h. The obtained cell viability data were used to construct a heat map (Figure 2) in order to select compounds that exert cancer cell line-specific cytotoxicity. […] Furthermore, some compounds discriminated only DU145 cells and could eliminate these type of prostate cancer cells.
# (§2) To understand structure-function relationships, we also included the structural analogs of the selected compounds, namely 7a (C-17 acetate of 8a), 8c (C-17 OH counterpart of 7c), and 9a (steroidal pair of 19a) into subsequent analyses. […] For this, compounds were applied on MCF-7, PC-3, DU145, and HeLa and on non-cancerous MRC-5 fibroblasts in various concentrations for 72 h or were treated with cisplatin at different concentrations. On the viability data, dose–response curves were fitted (Figure S1) and IC50 values were calculated accordingly (Table 3). In agreement with the primary cytotoxicity screen (Table S1), the obtained IC50 concentrations clearly indicated which compound was selectively effective on one or more cancer cell lines. […] Typically, acetylated steroidal pyrazoles were less favorable than deacetylated counterparts due to reduced cancer cell selectivity (7c, 10a).
# (§3) To evaluate the in vitro pharmacological effects of the synthesized molecules, each compound was first dissolved in cell culture grade DMSO (Sigma) to a final concentration of 10 mM. Using MTT colorimetric assay, the cytotoxicity of these compounds was evaluated on cancerous (MCF-7, HeLa, DU145, PC-3) and non-cancerous (MRC-5) cell lines. Briefly, 5000 cells/well of each cell line were seeded in 96-well plates and were left to grow overnight in a 5% CO2 atmosphere at 37 °C. On the next day, cells were treated with each derivative separately, in case of the primary screen, or only with the selected compounds upon IC50 determination. Cells were incubated with the test compounds for 72 h in a 5% CO2 atmosphere at 37 °C. End point was measured by incubating cells for 1 h with 0.5 mg/mL of MTT reagent (Serva) dissolved in serum free culture medium. The formazan crystals formed by metabolically active cells were later dissolved in DMSO. Optical density of the obtained solutions was measured at 570 nm using a Synergy HTX plate reader. […] The analysis and conclusions were made based on three independent experiments. Normalized data were analyzed and the heat map was constructed using GraphPad Prism 7 software.
# [2] = system: HeLa cells; experiment: MTT cytotoxicity assay on HeLa cells; assay type: cell-based; conditions: 72 h; for primary growth inhibitory screen, cell viability, HeLa: 2.5 µM, mean±SD, untreated control about 100; for IC50: Homo sapiens, HeLa, compounds 1-7 µM, mean ± SD, read-out: IC50 on HeLa
# Description: as §1, §2, §3
# [3] = system: MCF-7 cells; experiment: MTT cytotoxicity assay on MCF-7 cells; assay type: cell-based; conditions: for primary growth inhibitory screen, cell viability, MCF-7: 2.5 µM, 72 h, mean±SD, untreated control about 100; for IC50: Homo sapiens, MCF7, 72 h, compounds 1-7 µM, mean ± SD, read-out: IC50 on MCF-7
# Description: as §1, §2, §3
# [4] = system: PC-3 cells; experiment: MTT cytotoxicity assay on PC-3 prostate cancer cells; assay type: cell-based; conditions: for primary growth inhibitory screen, cell viability, PC-3: 2.5 µM, 72 h, mean±SD, untreated control about 100; for IC50: Homo sapiens, PC-3, 72 h, compounds 1-7 µM, mean ± SD, read-out: IC50 on PC-3
# Description: as §1, §2, §3
# [5] = system: MRC-5 fibroblasts; experiment: MTT cytotoxicity assay on non-cancerous MRC-5 fibroblasts; assay type: cell-based; conditions: 72 h; for primary growth inhibitory screen, cell viability, MRC-5 / effect on non-cancerous fibroblasts: 2.5 µM; for primary growth inhibitory screen, cell viability, MRC-5 / IC50: MTT; for primary growth inhibitory screen, cell viability, MRC-5: mean±SD, untreated control about 100; for effect on non-cancerous fibroblasts: based on the heat map; for IC50: Homo sapiens, MRC5, compounds 1-7 µM, mean ± SD, read-out: IC50 on MRC-5
# Description: as §1, §2, §3
SMILES,melting point,"primary growth inhibitory screen, cell viability, DU145 [1]","primary growth inhibitory screen, cell viability, HeLa [2]","primary growth inhibitory screen, cell viability, MCF-7 [3]","primary growth inhibitory screen, cell viability, PC-3 [4]","primary growth inhibitory screen, cell viability, MRC-5 [5]",IC50 [1],IC50 [2],IC50 [3],IC50 [4],effect on non-cancerous fibroblasts [5],IC50 [5]
CC(=O)O[C@H]1CC[C@H]2[C@@H]3CCc4cc(O)c(-c5nn(-c6ccc(C)cc6)cc5CO)cc4[C@H]3CC[C@]12C [Compound 10b],254 to 256 °C,≥ 100±6.8,68.3±2.2,87.6±0.7,88.0±5.6,96.9±3.8,–,–,–,–,–,–
CC(=O)O[C@H]1CC[C@H]2[C@@H]3CCc4cc(O)c(-c5nn(-c6ccc(Cl)cc6)cc5CO)cc4[C@H]3CC[C@]12C [Compound 10c],288 to 290 °C,77.3±6.3,72.4±4.2,63.2±2.2,81.6±6.8,96.4±10.1,–,–,–,–,–,–
C[C@]12CC[C@@H]3c4cc(-c5nn(-c6ccccc6)cc5CO)c(O)cc4CC[C@H]3[C@@H]1CC[C@@H]2O [Compound 11a],141 to 143 °C,98.2±5.4,75.4±1.1,93.4±3.7,59.7±3.2,≥ 100±8.2,> 7 µM,4.3 ± 1 µM,6.8 ± 1 µM,2.9 ± 1.3 µM,no or very mild effect,> 7 µM
Cc1ccc(-n2cc(CO)c(-c3cc4c(cc3O)CC[C@@H]3[C@@H]4CC[C@]4(C)[C@@H](O)CC[C@@H]34)n2)cc1 [Compound 11b],201 to 203 °C,97.5±10.1,70.1±4.5,80.4±2.9,74.3±2.3,≥ 100±2.2,–,–,–,–,–,–
C[C@]12CC[C@@H]3c4cc(-c5nn(-c6ccc(Cl)cc6)cc5CO)c(O)cc4CC[C@H]3[C@@H]1CC[C@@H]2O [Compound 11c],240 to 242 °C,127.1±4.9,77.9±1.5,≥ 100±0.7,87.1±3.8,≥ 100±8.4,–,–,–,–,–,–
"CC(=O)c1cc2c(cc1O)CCCC2 [Compound 15, 3-Acetyl-5,6,7,8-tetrahydro-2-naphthol]",70 to 72 °C,≥ 100±6.7,53.8±8.3,≥ 100±1.9,≥ 100±2.2,≥ 100±3.7,> 7 µM,3.6 ± 1.2 µM,> 7 µM,> 7 µM,no or very mild effect,> 7 µM

# — article PMC7571145, “Multistep Synthesis and In Vitro Anticancer Evaluation of 2-Pyrazolyl-Estradiol Derivatives, Pyrazolocoumarin-Estradiol Hybrids and Analogous Compounds” (Molecules, 2020)
